According to patent US9586962B2, “Disubstituted octahydropyrrolo [3,4-C] pyrroles as orexin receptor modulators” (Janssen Pharmaceutica NV, priority 2011, dated 2017):

Target: human orexin 2 receptor (Homo sapiens (Human), UniProt O43614)
Experiment: Human orexin 2 receptor Ca2+ mobilization assay (FLIPR, PFSK cells, orexin B 100 nM)
Format: cell-based
Conditions: modified Cheng-Prusoff correction, read-out: OR 2 Kb
Description: Human Orexin 2 Receptor Ca^2+ Mobilization Assay
Cells were seeded on to 96-well Packard viewplates at a density of 50,000 cells/well and incubated overnight at 37° C., 5% CO2. The cells were dye-loaded with 4 μM Ca^2+ dye Fluo-3AM in serum-free DMEM/F-12 with 2.5 mM probenecid and incubated at 37° C., 5% CO2 for one hour. Cells were pre-incubated with compounds (diluted in DMEM/F-12) for 30 minutes before agonist (orexin B, 100 nM) stimulation. Ligand-induced Ca^2+ release was measured using a Fluorometric Imaging Plate Reader (FLIPR, Molecular Devices, Sunnyvale, Calif.). Functional responses were measured as peak fluorescence intensity minus basal. The concentration of agonist that produced a half-maximal response is represented by the EC50 value. Antagonistic potency values were converted to apparent pKB values using a modified Cheng-Prusoff correction. Apparent pKB=−log IC50/1+[conc agonist/EC50]. Data are expressed as mean±S.E.M, the designation of NT means not tested.

human orexin 2 receptor, sequence (O43614 whole entry): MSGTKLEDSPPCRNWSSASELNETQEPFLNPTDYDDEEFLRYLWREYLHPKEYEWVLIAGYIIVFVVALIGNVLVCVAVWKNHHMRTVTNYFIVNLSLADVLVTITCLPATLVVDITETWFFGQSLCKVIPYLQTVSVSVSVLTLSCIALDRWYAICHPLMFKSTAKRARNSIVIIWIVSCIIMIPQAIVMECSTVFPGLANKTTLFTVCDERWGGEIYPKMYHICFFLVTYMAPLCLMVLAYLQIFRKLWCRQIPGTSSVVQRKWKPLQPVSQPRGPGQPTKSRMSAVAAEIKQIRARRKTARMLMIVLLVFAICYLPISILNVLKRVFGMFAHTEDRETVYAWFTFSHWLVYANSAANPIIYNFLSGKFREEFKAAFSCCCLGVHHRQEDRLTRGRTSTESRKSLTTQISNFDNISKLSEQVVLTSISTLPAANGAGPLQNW

| Kb [nM] | SMILES |
| --- | --- |
| 10 | COc1cc(N2CC3CN(C(=O)c4c(F)cccc4-n4nccn4)CC3C2)nc(N(C)C)n1 (stereo not drawn) [Example 1, 4-[5-{[2-Fluoro-6-(2H-1,2,3-triazol-2-yl)phenyl]carbonyl}hexahydropyrrolo[3,4-c]pyrrol-2(1H)-yl]-6-methoxy-N,N-dimethylpyrimidin-2-amine] |
| 16 | CN(C)c1cc(N2CC3CN(C(=O)c4ccccc4-n4nccn4)CC3C2)nc(C(F)(F)F)n1 (stereo not drawn) [Example 2, N,N-Dimethyl-6-[5-{[2-(2H-1,2,3-triazol-2-yl)phenyl]carbonyl}hexahydropyrrolo[3,4-c]pyrrol-2(1H)-yl]-2-(trifluoromethyl)pyrimidin-4-amine] |
| 14 | CN(C)c1cc(N2CC3CN(C(=O)c4c(F)cccc4-n4nccn4)CC3C2)nc(C(F)(F)F)n1 (stereo not drawn) [Example 3, 6-[5-{[2-Fluoro-6-(2H-1,2,3-triazol-2-yl)phenyl]carbonyl}hexahydropyrrolo[3,4-c]pyrrol-2(1H)-yl]-N,N-dimethyl-2-(trifluoromethyl)pyrimidin-4-amine] |
| 32 | COc1cc(N2CC3CN(C(=O)c4cc(F)ccc4-n4nccn4)CC3C2)nc(N(C)C)n1 (stereo not drawn) [Example 4, 4-[5-{[5-Fluoro-2-(2H-1,2,3-triazol-2-yl)phenyl]carbonyl}hexahydropyrrolo[3,4-c]pyrrol-2(1H)-yl]-6-methoxy-N,N-dimethylpyrimidin-2-amine] |
| 5 | COc1cc(N2CC3CN(C(=O)c4ccccc4-n4nccn4)CC3C2)nc(N(C)C)n1 (stereo not drawn) [Example 5, 4-Methoxy-N,N-dimethyl-6-[5-{[2-(2H-1,2,3-triazol-2-yl)phenyl]carbonyl}hexahydropyrrolo-[3,4-c]pyrrol-2(1H)-yl]pyrimidin-2-amine] |
| 25 | CN(C)c1cc(N2CC3CN(C(=O)c4ccc(F)cc4-n4nccn4)CC3C2)nc(C(F)(F)F)n1 (stereo not drawn) [Example 6, 6-[5-{[4-Fluoro-2-(2H-1,2,3-triazol-2-yl)phenyl]carbonyl}hexahydropyrrolo[3,4-c]pyrrol-2(1H)-yl]-N,N-dimethyl-2-(trifluoromethyl)pyrimidin-4-amine] |
| 13 | COc1cc(N2CC3CN(C(=O)c4ccc(F)cc4-n4nccn4)CC3C2)nc(N(C)C)n1 (stereo not drawn) [Example 7, 4-[5-{[4-Fluoro-2-(2H-1,2,3-triazol-2-yl)phenyl]carbonyl}hexahydropyrrolo[3,4-c]pyrrol-2(1H)-yl]-6-methoxy-N,N-dimethylpyrimidin-2-amine] |
| 56 | CN(C)c1cc(N2CC3CN(C(=O)c4cc(F)ccc4-n4nccn4)CC3C2)nc(C(F)(F)F)n1 (stereo not drawn) [Example 9, 6-[5-{[5-Fluoro-2-(2H-1,2,3-triazol-2-yl)phenyl]carbonyl}hexahydropyrrolo[3,4-c]pyrrol-2(1H)-yl]-N,N-dimethyl-2-(trifluoromethyl)pyrimidin-4-amine] |
| 32 | Cc1cc(C)nc(N2CC3CN(C(=O)c4sccc4-c4ccccc4)CC3C2)n1 (stereo not drawn) [Example 12, 2-(4,6-Dimethylpyrimidin-2-yl)-5-[(3-phenylthiophen-2-yl)carbonyl]octahydropyrrolo[3,4-c]pyrrole] |
| 79 | Cc1cc(C)nc(N2CC3CN(C(=O)c4occc4-c4ccccc4)CC3C2)n1 (stereo not drawn) [Example 13, 2-(4,6-Dimethylpyrimidin-2-yl)-5-[(3-phenylfuran-2-yl)carbonyl]octahydropyrrolo[3,4-c]pyrrole] |
| 9 | Cc1cc(C)nc(N2CC3CN(C(=O)c4ccccc4-c4nnc[nH]4)CC3C2)n1 (stereo not drawn) [Example 14, 2-(4,6-Dimethylpyrimidin-2-yl)-5-{[2-(1H-1,2,4-triazol-5-yl)phenyl]carbonyl}octahydro-pyrrolo[3,4-c]pyrrole] |
| 31 | O=C(c1ccccc1-c1cccs1)N1CC2CN(c3cnc4ccccc4n3)CC2C1 (stereo not drawn) [Example 19, 2-{5-[(2-Thiophen-2-ylphenyl)carbonyl]hexahydropyrrolo[3,4-c]pyrrol-2(1H)-yl}quinoxaline] |
| 129 | Cc1ccc2ccccc2c1C(=O)N1CC2CN(c3cnc4ccccc4n3)CC2C1 (stereo not drawn) [Example 20, 2-{5-[(2-Methylnaphthalen-1-yl)carbonyl]hexahydropyrrolo[3,4-c]pyrrol-2(1H)-yl}quinoxaline] |
| 158 | O=C(c1ccccc1-c1cccs1)N1CC2CN(c3nccc(-c4ccccc4)n3)CC2C1 (stereo not drawn) [Example 22, 2-(4-Phenylpyrimidin-2-yl)-5-[(2-thiophen-2-ylphenyl)carbonyl]octahydro-pyrrolo[3,4-c]pyrrole] |
| 99 | Cc1ccc2ccccc2c1C(=O)N1CC2CN(c3nccc(-c4ccccc4)n3)CC2C1 (stereo not drawn) [Example 25, 2-[(2-Methylnaphthalen-1-yl)carbonyl]-5-(4-phenylpyrimidin-2-yl)octahydropyrrolo[3,4-c]pyrrole] |
| 32 | Cc1ccnc(N2CC3CN(C(=O)c4ccccc4-c4cccs4)CC3C2)n1 (stereo not drawn) [Example 32, 2-(4-Methylpyrimidin-2-yl)-5-[(2-thiophen-2-ylphenyl)carbonyl]octahydro-pyrrolo[3,4-c]pyrrole] |
| 10 | Cc1cc(C)nc(N2CC3CN(C(=O)c4ccccc4-c4cccs4)CC3C2)n1 (stereo not drawn) [Example 43, 2-(4,6-Dimethylpyrimidin-2-yl)-5-[(2-thiophen-2-ylphenyl)carbonyl]octahydro-pyrrolo[3,4-c]pyrrole] |

| Kb [nM] | SMILES |
| --- | --- |
| 63 | Cc1cc(C)nc(N2CC3CN(C(=O)c4ccccc4-c4ccccc4)CC3C2)n1 (stereo not drawn) [Example 44, 2-(Biphenyl-2-ylcarbonyl)-5-(4,6-dimethylpyrimidin-2-yl)octahydropyrrolo[3,4-c]pyrrole] |
| 10 | COc1ccnc(N2CC3CN(C(=O)c4ccccc4-c4cccs4)CC3C2)n1 (stereo not drawn) [Example 45, 2-(4-Methoxypyrimidin-2-yl)-5-[(2-thiophen-2-ylphenyl)carbonyl]octahydro-pyrrolo[3,4-c]pyrrole] |
| 32 | Cc1cc(C)nc(N2CC3CN(C(=O)c4c(C)ccc5ccccc45)CC3C2)n1 (stereo not drawn) [Example 47, 2-(4,6-Dimethylpyrimidin-2-yl)-5-[(2-methylnaphthalen-1-yl)carbonyl]octahydro-pyrrolo[3,4-c]pyrrole] |
| 32 | COc1ccnc(N2CC3CN(C(=O)c4c(C)ccc5ccccc45)CC3C2)n1 (stereo not drawn) [Example 49, 2-(4-Methoxypyrimidin-2-yl)-5-[(2-methylnaphthalen-1-yl)carbonyl]octahydro-pyrrolo[3,4-c]pyrrole] |
| 50 | Cc1cc(C)nc(N2CC3CN(C(=O)c4ccccc4-c4cccc(F)c4)CC3C2)n1 (stereo not drawn) [Example 52, 2-(4,6-Dimethylpyrimidin-2-yl)-5-[(3′-fluorobiphenyl-2-yl)carbonyl]octahydro-pyrrolo[3,4-c]pyrrole] |
| 40 | CCOc1ccc2ccccc2c1C(=O)N1CC2CN(c3nccc(OC)n3)CC2C1 (stereo not drawn) [Example 56, 2-[(2-Ethoxynaphthalen-1-yl)carbonyl]-5-(4-methoxypyrimidin-2-yl)octahydropyrrolo[3,4-c]pyrrole] |
| 40 | O=C(c1ccccc1-c1cccs1)N1CC2CN(c3nccc(-c4cn[nH]c4)n3)CC2C1 (stereo not drawn) [Example 62, 2-[4-(1H-Pyrazol-4-yl)pyrimidin-2-yl]-5-[(2-thiophen-2-ylphenyl)carbonyl]octahydro-pyrrolo[3,4-c]pyrrole] |
| 20 | Cc1cnc(C)c(N2CC3CN(C(=O)c4ccccc4-c4cccs4)CC3C2)n1 (stereo not drawn) [Example 63, 2-(3,6-Dimethylpyrazin-2-yl)-5-[(2-thiophen-2-ylphenyl)carbonyl]octahydro-pyrrolo[3,4-c]pyrrole] |
| 16 | COc1cc(OC)nc(N2CC3CN(C(=O)c4c(F)cccc4-c4ncccn4)CC3C2)n1 (stereo not drawn) [Example 68, 2-(4,6-Dimethoxypyrimidin-2-yl)-5-[(2-fluoro-6-pyrimidin-2-ylphenyl)carbonyl]octahydropyrrolo[3,4-c]pyrrole] |
| 8 | Cc1cc(C)nc(N2CC3CN(C(=O)c4ccccc4-c4ccccn4)CC3C2)n1 (stereo not drawn) [Example 69, 2-(4,6-Dimethylpyrimidin-2-yl)-5-[(2-pyridin-2-ylphenyl)carbonyl]octahydro-pyrrolo[3,4-c]pyrrole] |
| 40 | COc1cc(OC)nc(N2CC3CN(C(=O)c4ccccc4-c4ccccn4)CC3C2)n1 (stereo not drawn) [Example 70, 2-(4,6-Dimethoxypyrimidin-2-yl)-5-[(2-pyridin-2-ylphenyl)carbonyl]octahydro-pyrrolo[3,4-c]pyrrole] |
| 5 | Cc1cc(C)nc(N2CC3CN(C(=O)c4c(F)cccc4-c4ncccn4)CC3C2)n1 (stereo not drawn) [Example 73, 2-(4,6-Dimethylpyrimidin-2-yl)-5-[(2-fluoro-6-pyrimidin-2-ylphenyl)carbonyl]octahydropyrrolo[3,4-c]pyrrole] |
| 10 | Cc1cc(C)nc(N2CC3CN(C(=O)c4cc(F)ccc4-c4ncccn4)CC3C2)n1 (stereo not drawn) [Example 74, 2-(4,6-Dimethylpyrimidin-2-yl)-5-[(5-fluoro-2-pyrimidin-2-ylphenyl)carbonyl]octahydropyrrolo[3,4-c]pyrrole] |
| 16 | CCOc1ccc2ccccc2c1C(=O)N1CC2CN(c3nc(C)cc(C)n3)CC2C1 (stereo not drawn) [Example 77, 2-(4,6-Dimethylpyrimidin-2-yl)-5-[(2-ethoxynaphthalen-1-yl)carbonyl]octahydro-pyrrolo[3,4-c]pyrrole] |
| 25 | COc1cc(OC)nc(N2CC3CN(C(=O)c4ccccc4-n4nccn4)CC3C2)n1 (stereo not drawn) [Example 84, 2-(4,6-Dimethoxypyrimidin-2-yl)-5-{[2-(2H-1,2,3-triazol-2-yl)phenyl]carbonyl}octahydropyrrolo[3,4-c]pyrrole] |
| 63 | O=C(c1ccccc1-c1nnc[nH]1)N1CC2CN(c3cnc4ccccc4n3)CC2C1 (stereo not drawn) [Example 85, 2-[5-{[2-(4H-1,2,4-Triazol-3-yl)phenyl]carbonyl}hexahydropyrrolo[3,4-c]pyrrol-2(1H)-yl]quinoxaline] |
